This note sets out measurements from US10072001B2, “Tank-binding kinase inhibitor compounds” (Gilead Sciences, Inc., priority 2014, dated 2018).

Experiment [1] has as its target IKKε (Homo sapiens (Human), UniProt Q14164). Kind of experiment: TR-FRET kinase assay, IKKε. It is filed as biochemical. The conditions noted are these: full length recombinant IKKε 0.3 nM, 2x Km ATP, 1 μM peptide, 240 min at 25° C.; geometric mean of minimum four determinations. The text has this: Biological Assay for TBK1 and IKKs:
(In general: TR-FRET usually uses a lanthanide donor and a delayed reading to cut background.)

The target of experiment [2] is TBK1 (Homo sapiens (Human), UniProt Q9UHD2). Put plainly: TR-FRET kinase assay, TBK1. As to conditions: read-out: TBK1-IC50; full length recombinant TBK1 2.5 nM, 2x Km ATP, 1 μM peptide, 240 min at 25° C.; geometric mean of minimum four determinations.
TBK1, sequence (Q9UHD2 whole entry): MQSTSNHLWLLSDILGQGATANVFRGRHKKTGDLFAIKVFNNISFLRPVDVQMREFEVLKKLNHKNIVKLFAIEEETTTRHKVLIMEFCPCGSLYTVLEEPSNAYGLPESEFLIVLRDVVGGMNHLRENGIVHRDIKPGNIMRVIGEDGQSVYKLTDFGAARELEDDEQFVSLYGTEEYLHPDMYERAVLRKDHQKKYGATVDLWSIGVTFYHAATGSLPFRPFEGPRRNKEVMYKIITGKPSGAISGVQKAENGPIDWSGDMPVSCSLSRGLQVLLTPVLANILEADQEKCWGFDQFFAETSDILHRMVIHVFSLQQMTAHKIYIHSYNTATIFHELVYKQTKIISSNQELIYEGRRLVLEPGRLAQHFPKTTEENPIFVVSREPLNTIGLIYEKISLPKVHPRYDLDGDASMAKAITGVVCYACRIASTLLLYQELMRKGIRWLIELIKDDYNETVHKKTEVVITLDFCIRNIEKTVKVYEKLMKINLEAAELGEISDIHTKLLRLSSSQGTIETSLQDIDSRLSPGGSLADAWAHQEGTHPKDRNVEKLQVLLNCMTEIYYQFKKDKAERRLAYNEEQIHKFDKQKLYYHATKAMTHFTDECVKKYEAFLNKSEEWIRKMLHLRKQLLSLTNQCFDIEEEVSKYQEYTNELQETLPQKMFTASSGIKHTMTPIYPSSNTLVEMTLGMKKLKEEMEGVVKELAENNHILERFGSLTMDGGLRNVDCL
Protocol: Enzymatic activity of IKKε and TBK1 was measured using a homogeneous time resolved fluorescence resonance energy transfer (TR-FRET) assay that monitors enzyme dependent phosphorylation of a biotinylated serine/threonine peptide substrate. […] TBK1 and IKKs were expressed and purified as full length recombinant proteins. Detection reagents for the assay were purchased from Cisbio. […] After an assay reaction time of 240 minutes at 25° C., reactions were terminated with EDTA.
Amount of phosphorylated peptide was determined by the addition of 125 nM streptavidin XL665 and europium cryptate labeled anti-phospho monoclonal antibody and the resulting TR-FRET signal was recorded on an Envision plate reader (Ex: 340 nm; Em: 615/665 nm; 100 μs delay and 200 μs read window). […] All IC50 values represent geometric mean values of a minimum of four determinations.

Structures are written as SMILES.

IKKε, sequence (Q14164 whole entry): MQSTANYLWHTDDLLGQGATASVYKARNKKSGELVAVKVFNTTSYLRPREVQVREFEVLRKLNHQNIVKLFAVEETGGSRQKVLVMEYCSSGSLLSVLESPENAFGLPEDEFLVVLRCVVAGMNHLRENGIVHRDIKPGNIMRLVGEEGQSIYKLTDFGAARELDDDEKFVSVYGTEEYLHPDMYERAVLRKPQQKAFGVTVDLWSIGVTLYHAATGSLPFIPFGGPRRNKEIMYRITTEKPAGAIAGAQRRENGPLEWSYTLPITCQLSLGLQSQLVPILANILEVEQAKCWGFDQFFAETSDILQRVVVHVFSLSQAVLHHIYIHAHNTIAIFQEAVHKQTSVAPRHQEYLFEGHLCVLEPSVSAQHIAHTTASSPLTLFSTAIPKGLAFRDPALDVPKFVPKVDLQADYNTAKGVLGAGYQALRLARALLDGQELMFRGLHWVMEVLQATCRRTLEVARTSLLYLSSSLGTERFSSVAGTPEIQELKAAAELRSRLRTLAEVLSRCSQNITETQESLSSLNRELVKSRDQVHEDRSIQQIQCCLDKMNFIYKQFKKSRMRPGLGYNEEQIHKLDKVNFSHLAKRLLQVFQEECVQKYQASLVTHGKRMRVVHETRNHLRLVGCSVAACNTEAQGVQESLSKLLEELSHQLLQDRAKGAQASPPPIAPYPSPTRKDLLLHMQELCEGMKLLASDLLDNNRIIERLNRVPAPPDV

Regarding `N#Cc1cc(-c2ccnc3[nH]c(-c4ccc(N5CCOCC5)cc4)cc23)ccc1O[C@H]1CCN(C(=O)CO)C1` [Example 23, (S)-2-((1-(2-hydroxyacetyl)pyrrolidin-3-yl)oxy)-5-(2-(4-morpholinophenyl)-1H-pyrrolo[2,3-b]pyridin-4-yl)benzonitrile], the IC50 in experiment [1] turned out to be 64.9 nM; in experiment [2], 16.2 nM.
On the same counts, the results for `COc1ccc(-c2cc3c(-c4ccc(OC5CCNCC5)c(C#N)c4)ncnc3[nH]2)cc1` [Example 123, 5-(6-(4-methoxyphenyl)-7H-pyrrolo[2,3-d]pyrimidin-4-yl)-2-(piperidin-4-yloxy)benzonitrile] are 65.8 nM and 22.4 nM.
Consider `N#Cc1cc(-c2ccnc3[nH]c(-c4cnn(C5CCNCC5)c4)cc23)ccc1OC1CCOCC1` [Example 10, 5-(2-(1-(piperidin-4-yl)-1H-pyrazol-4-yl)-1H-pyrrolo[2,3-b]pyridin-4-yl)-2-((tetrahydro-2H-pyran-4-yl)oxy)benzonitrile], for which the IC50 came out at 1.74 nM in experiment [1] and 1.22 nM in experiment [2].
On the same counts, the results for `N#Cc1cc(-c2ncnc3[nH]c(Nc4cccc(N5CCOCC5)c4)nc23)ccc1OC1CCOCC1` [Example 194, 5-(8-((3-morpholinophenyl)amino)-9H-purin-6-yl)-2-((tetrahydro-2H-pyran-4-yl)oxy)benzonitrile] are 564 nM and 298 nM.
On the same counts, the results for `CC1(C)C(=O)Nc2cc(-c3cc4c(-c5ccc(OC6CCOCC6)c(C#N)c5)ccnc4[nH]3)ccc21` [Example 76, 5-(2-(3,3-dimethyl-2-oxoindolin-6-yl)-1H-pyrrolo[2,3-b]pyridin-4-yl)-2-((tetrahydro-2H-pyran-4-yl)oxy)benzonitrile] are > 1000 nM and 5.76 nM.
Turning to `CC1CN(c2ccc(-c3nc4c(-c5ccc(OC6CCN(C(=O)CO)CC6)c(C#N)c5)ncnc4[nH]3)cc2)CCN1CCF` (stereo not shown) [Example 256, 5-(8-(4-(4-(2-fluoroethyl)-3-methylpiperazin-1-yl)phenyl)-9H-purin-6-yl)-2-((1-(2-hydroxyacetyl)piperidin-4-yl)oxy)benzonitrile], the 50% inhibitory concentration (IC50) was 1.79 nM in experiment [1] and 2.4 nM in experiment [2].
On the same counts, the results for `N#Cc1cc(-c2ncnc3[nH]c(-c4ccc(OCCN5CCCC5)cc4)cc23)ccc1OC1CCOCC1` [Example 226, 5-(6-(4-(2-(pyrrolidin-1-yl)ethoxy)phenyl)-7H-pyrrolo[2,3-d]pyrimidin-4-yl)-2-((tetrahydro-2H-pyran-4-yl)oxy)benzonitrile] are 1.8 nM and 1.24 nM.
On the same counts, the results for `N#Cc1cc(-c2ccnc3[nH]c(-c4ccc(N5CCOCC5)cc4)cc23)ncc1OC1CCOCC1` [Example 26, 2-(2-(4-morpholinophenyl)-1H-pyrrolo[2,3-b]pyridin-4-yl)-5-((tetrahydro-2H-pyran-4-yl)oxy)isonicotinonitrile] are 6.84 nM and 3.43 nM.
On the same counts, the results for `N#Cc1cc(-c2ccnc3[nH]c(C4=CCNCC4)cc23)ccc1OC1CCOCC1` [Example 5, 2-((tetrahydro-2H-pyran-4-yl)oxy)-5-(2-(1,2,3,6-tetrahydropyridin-4-yl)-1H-pyrrolo[2,3-b]pyridin-4-yl)benzonitrile] are 39.7 nM and 29.8 nM.
On to `N#Cc1cc(-c2ncnc3[nH]c(-c4ccc(CC(=O)O)cc4)cc23)ccc1OC1CCOCC1` [Example 168, 2-(4-(4-(3-Cyano-4-((tetrahydro-2H-pyran-4-yl)oxy)phenyl)-7H-pyrrolo[2,3-d]pyrimidin-6-yl)phenyl)acetic acid], for which the IC50 in experiment [1] came out at 15.7 nM; in experiment [2], 13.7 nM.
On the same counts, the results for `N#Cc1cc(-c2ccnc3[nH]c(-c4ccc(N5CCOCC5)cc4)cc23)ccc1OC1CCCOC1` (stereo not shown) [Example 239, 5-(2-(4-morpholinophenyl)-1H-pyrrolo[2,3-b]pyridin-4-yl)-2-((tetrahydro-2H-pyran-3-yl)oxy)benzonitrile] are 193 nM and 44.7 nM.
Turning to `N#Cc1cc(-c2ncnc3[nH]c(-c4ccc(C5CCN(CC(F)(F)F)CC5)cc4)nc23)ccc1OC1CCN(C=O)CC1` [Example 259, 2-((1-formylpiperidin-4-yl)oxy)-5-(8-(4-(1-(2,2,2-trifluoroethyl)piperidin-4-yl)phenyl)-9H-purin-6-yl)benzonitrile], the 50% inhibitory concentration (IC50) in experiment [1] amounted to 45.5 nM; in experiment [2] it was 12.2 nM.
On the same counts, the results for `N#Cc1cc(-c2ncnc3[nH]c(-c4ccc(N5CCOCC5)cc4)nc23)ccc1OC1CCN(C(=O)CO)CC1` [Example 205, 2-((1-(2-hydroxyacetyl)piperidin-4-yl)oxy)-5-(8-(4-morpholinophenyl)-9H-purin-6-yl)benzonitrile] are 4.71 nM and 2.07 nM.
On the same counts, the results for `N#Cc1cc(-c2ncnc3[nH]c(-c4ccc(OCCN5CCCC5)cc4)cc23)ccc1OC1CCN(C(=O)CO)CC1` [Example 229, 2-((1-(2-hydroxyacetyl)piperidin-4-yl)oxy)-5-(6-(4-(2-(pyrrolidin-1-yl)ethoxy)phenyl)-7H-pyrrolo[2,3-d]pyrimidin-4-yl)benzonitrile] are 0.851 nM and 1.01 nM.
For the molecule `CN(C)Cc1ccc(-c2nc3c(-c4ccc(OC5CCN(C(=O)C(F)F)CC5)c(C#N)c4)ncnc3[nH]2)cc1` [Example 267, 2-((1-(2,2-difluoroacetyl)piperidin-4-yl)oxy)-5-(8-(4-((dimethylamino)methyl)phenyl)-9H-purin-6-yl)benzonitrile], the IC50 in experiment [1] and in experiment [2] was 1000 nM in each case.
As to `Cn1cc(-c2nc3c(-c4ccc(OC5CCOCC5)c(C#N)c4)ccnc3[nH]2)cn1` [Example 307, 5-(2-(1-methyl-1H-pyrazol-4-yl)-3H-imidazo[4,5-b]pyridin-7-yl)-2-((tetrahydro-2H-pyran-4-yl)oxy)benzonitrile], the IC50 in experiment [1] worked out at 21.3 nM; in experiment [2] it was 44.2 nM.
On the same counts, the results for `COC(C)(C)c1ccc(-c2cc3c(-c4cc(C#N)c(OC5CCOCC5)cn4)ccnc3[nH]2)cc1` [Example 169, 2-(2-(4-(2-Methoxypropan-2-yl)phenyl)-1H-pyrrolo[2,3-b]pyridin-4-yl)-5-((tetrahydro-2H-pyran-4-yl)oxy)isonicotinonitrile] are 13.2 nM and 4.8 nM.
On the same counts, the results for `CC(C)(C)n1cc(-c2cc3c(-c4ccc(OC5CCOCC5)c(C#N)c4)ccnc3[nH]2)cn1` [Example 53, 5-(2-(1-(tert-butyl)-1H-pyrazol-4-yl)-1H-pyrrolo[2,3-b]pyridin-4-yl)-2-((tetrahydro-2H-pyran-4-yl)oxy)benzonitrile] are 13.7 nM and 9.4 nM.
Turning to `N#Cc1cc(-c2ccnc3[nH]c(-c4ccc(-n5cccn5)cc4)cc23)ccc1OC1CCOCC1` [Example 177, 5-(2-(4-(1H-pyrazol-1-yl)phenyl)-1H-pyrrolo[2,3-b]pyridin-4-yl)-2-((tetrahydro-2H-pyran-4-yl)oxy)benzonitrile], the half-maximal inhibitory concentration (IC50) in experiment [1] was 1000 nM; in experiment [2], 33.5 nM.
On the same counts, the results for `CC(C)(C)OC(=O)N1CC[C@H](Oc2ccc(-c3ccnc4[nH]c(-c5ccc(N6CCOCC6)cc5)cc34)cc2C#N)C1` [Example 25, (S)-tert-butyl 3-(2-cyano-4-(2-(4-morpholinophenyl)-1H-pyrrolo[2,3-b]pyridin-4-yl)phenoxy)pyrrolidine-1-carboxylate] are 306 nM and 115 nM.

For orientation: IC50 means the concentration needed to halve the response being measured.
